Laboratory results as given in US8821754B2, “Additive for preserving the fluidity of fluids containing gas hydrates” (Akzo Nobel N.V., priority 2006, dated 2014).
Marks after values point to notes of the source that are not given here.

Tests used:
[1] = multicell shut-in and restart test of anti-agglomerants; set-up: key: 0: The stirrer did not start at all until the temperature had been increased so much that the gas hydrate had melted; 1: The stirrer started but stopped again after a short period; 2: The stirrer started and kept on running continuously; settings: restart after at least twelve hours at 4° C.; for Tests multicell shut-in, Fresh water (70 bar) 2.5% / Tests multicell shut-in, Seawater (70 bar) 2.5%: 2.5% anti-agglomerant; for Tests multicell shut-in, Fresh water (70 bar) 2.0%: 2.0% anti-agglomerant
Source text: (§1) The technique used for evaluating the anti-agglomerants is described in detail in “New Technique for Evaluating Antiagglomerate Gas-Hydrate Inhibitors in Oilfield Applications”, SPE 93075, 2005 SPE International Symposium on Oilfield Chemistry, Houston, Tex., Feb. 2-4.
(§2) The complete multicell system consists of a high-pressure vessel containing the multicell test unit, a cooling unit, a stirrer drive, a sensor interface unit, and a computer system. The high-pressure vessel is connected to two gas cylinders containing pressurized hydrocarbon gas (87.9% methane, 7.7% ethane, 3.1% propane, and 1.3% isobutane) and nitrogen. Thus, in an experimental run each test cell will be subjected to the same gas mixture, temperature, and pressure. Each cell has a magnetic bar stirrer and the rotation of the stirrer is monitored by the sensor and recorded. When gas hydrate crystals are formed in a cell, there will be a change in viscosity or flow behaviour and there will be a change in the lag of the stirrer bar. Each time the magnetic bar passes a certain point, an optical pulse is recorded. The lag is measured as the difference between the position of the lower drive magnets and the stirrer in the cell. When the viscosity gets too high, as is the case when larger aggregates of gas hydrates are formed, the magnetic stirrer will either stop completely, in which case the signal will be zero, or start “skipping”, which will create an unstable/random signal, and this will be shown in the recorded graph.
(§3) Each cell is also equipped with a temperature sensor.
The cells are loaded in the same way as above, but hydrocarbon gas is admitted until the constant stated pressure is reached.
In this experiment the test cells were stirred at 120 rpm for one hour at 20° C. and the stated pressure. The stirring was then stopped and the autoclave cooled to 4° C. in about 1.5 hours. The cells were then kept at 4° C. for a minimum of twelve hours before the driving magnets were restarted at 120 rpm. They were then kept running for about two hours at 4° C. before the cells were reheated to 20° C. in about 1.5 hours.
This is marked as 0 in the tables. • The stirrer started but stopped again after a short period. This is marked as 1 in the tables. • The stirrer started and kept on running continuously. This is marked as 2 in the tables.

[2] = multicell screening of anti-agglomerants (stirred cells cooled to 4° C., 100 bars); set-up: key to Tests multicell screening, Seawater 1.0% / Tests multicell screening, Seawater 1.5% / Tests multicell screening, Fresh water 1.5% / Tests multicell screening, Fresh water 2.5%: 0: the compound does not work as an anti-agglomerant; 1: the compound initially works as an anti-agglomerant, but not throughout the whole test; 2: the compound works as an anti-agglomerant throughout the whole test; settings: for Tests multicell screening, Seawater 1.5% / Tests multicell screening, Fresh water 1.5%: 1.5% anti-agglomerant; for Tests multicell screening, Seawater 1.5% / Tests multicell screening, Seawater 1.0% / Tests multicell screening, Fresh water 1.5% / Tests multicell screening, Fresh water 2.5%: 100 bars, 4° C., Sleipner condensate; for effect as anti-agglomerant for gas hydrates in the screening test, in words: multicell screening test of Example 1; for Tests multicell screening, Seawater 1.0%: 1.0% anti-agglomerant; for Tests multicell screening, Fresh water 2.5%: 2.5% anti-agglomerant
Source text: as §1, §2, §3
The cells are loaded with 1 ml of water/inhibitor mixture and 2.5 ml of Sleipner condensate (=crude oil obtained from the Sleipner oilfield of Statoil). Nitrogen is first applied to expel most of the air, and then hydrocarbon gas is admitted until a constant pressure of 100 bars is reached.
During the whole test, the mixtures were continuously stirred at 120 rpm. The temperature was first lowered from about 20° C. to 4° C. in about 1.5 hours, then kept at 4° C. for about two hours, and finally reheated again to 20° C. in about 1.5 hours. When the stirrer works all the time, the compound is considered to work well as an anti-agglomerant, whereas if the stirrer bar stops, the compound is considered not to work as an anti-agglomerant during the prevailing conditions. The tests were performed both in seawater and in fresh water and at different concentrations of the anti-agglomerants.

[3] = seawater, 1.5% anti-agglomerant

With CCCCCCCC/C=C\CCCCCCCCN(CCCNC(C)=O)C(C)=O [Compound 10, N-oleyl-trimethylene diamine diamidated with acetic anhydride] the “Tests multicell shut-in, Fresh water (70 bar) 2.5%” value [1] was 2, the “Tests multicell shut-in, Seawater (70 bar) 1.5%” value [1, 3] was 0 and the “Tests multicell shut-in, Seawater (70 bar) 2.5%” value ([1]; seawater) was 2. The “Tests multicell screening, Seawater 1.5%” value [2] was 2.
In the case of CCCCCCCCN(CCCNC(C)=O)C(C)=O [Compound 11, N-(n-octyl)-trimethylene diamine diamidated with acetic anhydride], the “Tests multicell screening, Seawater 1.5%” value [2] is reported as 2.
For CCCCC(CC)CN(CCCNC(C)=O)C(C)=O (centres unmarked) [Compound 14, N-(2-ethylhexyl)-trimethylene diamine, diamidated with acetic anhydride], the “Tests multicell shut-in, Fresh water (70 bar) 2.5%” value [1] was 2, the “Tests multicell shut-in, Seawater (70 bar) 1.5%” value [1, 3] was 0 and the “Tests multicell shut-in, Seawater (70 bar) 2.5%” value ([1]; seawater) was 0.
With “(Coco alkyl)amine + 2EO + 2PO [Compound 3]” the “Tests multicell shut-in, Fresh water (70 bar) 2.0%” value [1] was 2, the “Tests multicell shut-in, Seawater (70 bar) 1.5%” value [1, 3] was 0 and the “Tests multicell shut-in, Seawater (70 bar) 2.5%” value ([1]; seawater) was 1. For the same compound, the “effect as anti-agglomerant for gas hydrates in the screening test, in words” value (shortened to “effect as anti-agglomerant”) [2] was “works excellently as an anti-agglomerant”, the “Tests multicell screening, Seawater 1.0%” value [2] was 2 and the “Tests multicell screening, Seawater 1.5%” value [2] was 2.
For “(Coco alkyl)amine + 2EO [B, reference compound]”, the “effect as anti-agglomerant” value [2] was “not effective”, the “Tests multicell screening, Seawater 1.0%” value [2] was 0 and the “Tests multicell screening, Seawater 1.5%” value [2] was 0.
With “(Coco alkyl)amine + 4 EO [reference compound]” the “effect as anti-agglomerant” value [2] was “not effective”, the “Tests multicell screening, Seawater 1.0%” value [2] was 0 and the “Tests multicell screening, Seawater 1.5%” value [2] was 0.
For Erucyl amine + 2EO + 2PO [Compound 2], the “Tests multicell screening, Fresh water 1.5%” value [2] was 2 and the “Tests multicell screening, Seawater 1.5%” value [2] was 2.
For “Monoamide between oleic acid and aminoethyl ethanolamine + 1EO, diesterified with acetic anhydride [Compound 7]”, the “Tests multicell screening, Seawater 1.0%” value [2] was 2.
In the case of “Monoamide between oleic acid and aminoethyl ethanolamine, amidated with acetic anhydride [Compound 8]”, the “Tests multicell screening, Fresh water 1.5%” value [2] is reported as 2, the “Tests multicell screening, Seawater 1.0%” value [2] is reported as 2 and the “Tests multicell screening, Seawater 1.5%” value [2] is reported as 2.
With “N,N-bis(3-aminopropyl)(tallow alkyl)amine, diamidated with acetic anhydride [Compound 9]” the “Tests multicell screening, Seawater 1.0%” value [2] was 0 and the “Tests multicell screening, Seawater 1.5%” value [2] was 2.
With “N-(2-ethylhexyl)-trimethylene diamine + 3PO [Compound 15]” the “Tests multicell shut-in, Fresh water (70 bar) 2.5%” value [1] was 1 and the “Tests multicell shut-in, Seawater (70 bar) 2.5%” value ([1]; seawater) was 2.
For “N-(coco alkyl)-trimethylene diamine diamidated with acetic anhydride [Compound 12]”, the “Tests multicell screening, Seawater 1.5%” value [2] was 2.
In the case of “N-(n-octyl)-trimethylene diamine + 3PO [Compound 4]”, the “Tests multicell screening, Seawater 1.5%” value [2] is reported as 2.
For “N-(tallow alkyl)-N-methyl aminopropylamine monoamidated with acetic anhydride [Compound 13]”, the “Tests multicell screening, Seawater 1.5%” value [2] was 2.
For “N-oleyl-trimethylene diamine + 3EO, triesterified with acetic anhydride [Compound 6]”, the “Tests multicell shut-in, Fresh water (70 bar) 2.5%” value [1] was 2, the “Tests multicell shut-in, Seawater (70 bar) 1.5%” value [1, 3] was 0 and the “Tests multicell shut-in, Seawater (70 bar) 2.5%” value ([1]; seawater) was 1. The “Tests multicell screening, Fresh water 2.5%” value [2] was 2 and the “Tests multicell screening, Seawater 1.5%” value [2] was 2.
With Oleyl amine + 2EO + 2PO [Compound 1] the “Tests multicell shut-in, Fresh water (70 bar) 2.0%” value [1] was 1, the “Tests multicell shut-in, Fresh water (70 bar) 2.5%” value [1] was 1 and the “Tests multicell shut-in, Seawater (70 bar) 2.5%” value ([1]; seawater) was 1. The “Tests multicell shut-in, Seawater 1.5%, measured at 100 bar” value ([1]; seawater, 100 bar, 1.5% anti-agglomerant) was 2** and the “Tests multicell screening, Seawater 1.5%” value [2] was 2.
In the case of “Oleyl amine + 2EO + 2PO, quaternized with CH3Cl [reference compound]”, the “Tests multicell screening, Fresh water 1.5%” value [2] is reported as 0 and the “Tests multicell screening, Seawater 1.5%” value [2] is reported as 2.
With “Oleyl amine + 2EO [D, reference compound]” the “Tests multicell screening, Seawater 1.0%” value [2] was 0.
For “Oleyl amine + 2EO, diester with acetic acid [Compound 5]”, the “Tests multicell screening, Fresh water 1.5%” value [2] was 0, the “Tests multicell screening, Fresh water 2.5%” value [2] was 0 and the “Tests multicell screening, Seawater 1.0%” value [2] was 0. The “Tests multicell screening, Seawater 1.5%” value [2] was 2.
